Measured values reported in the supplement of paper PMC10307832.

Experiments:
Test in all cases: relative viability (nuclei count vs DMSO), 5 days (fraction); higher = more cells survive
[1] = compound: CCc1c2c(nc3ccc(OC(=O)N4CCC(N5CCCCC5)CC4)cc13)-c1cc3c(c(=O)n1C2)COC(=O)[C@]3(O)CC [Irinotecan] + CS(=O)(=O)N1CCN(Cc2cc3nc(-c4cccc5[nH]ncc45)nc(N4CCOCC4)c3s2)CC1 [Pictilisib] (partner 1 µM)
Summary of the method: (§1)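 Five library-drug doses in √10 steps were combined with a fixed anchor-drug dose, or a single drug was given alone, by pin tool to lung cancer cell lines in 1536-well plates the day after seeding. Nuclei were stained and counted after 5 days. Relative viability is the nuclei count in treated wells over that in vehicle wells, taken as the median of duplicate plates.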

[2] = compound: CCc1c2c(nc3ccc(OC(=O)N4CCC(N5CCCCC5)CC4)cc13)-c1cc3c(c(=O)n1C2)COC(=O)[C@]3(O)CC [Irinotecan] + Nc1nc2[nH]cc(CCc3ccc(C(=O)N[C@@H](CCC(=O)O)C(=O)O)cc3)c2c(=O)[nH]1 [Pemetrexed] (partner 0.2 µM)
Summary of the method: as §1

[3] = compound: CC[C@@H](C)CNCC(=O)N1CCC2=C([C@@H]1COC3=CC=CC(=C3)C)C=CS2 [RU-SKI 43] + O=C(c1cc(Cc2n[nH]c(=O)c3ccccc23)ccc1F)N1CCN(C(=O)C2CC2)CC1 [Olaparib] (partner 8 µM)
Summary of the method: as §1

[4] = compound: Cn1cc(-c2cnc3ccc4ccc(CS(=O)(=O)NCc5ccccn5)cc4c(=O)c3c2)cn1 [MK-8033] + CC(=O)Nc1cccc(-n2c(=O)n(C3CC3)c(=O)c3c(Nc4ccc(I)cc4F)n(C)c(=O)c(C)c32)c1 [Trametinib] (partner 0.02 µM)
Summary of the method: as §1

Cell Line	relative viability ([1]; first compound 0.6325 µM)	relative viability ([1]; first compound 2 µM)	relative viability ([1]; first compound 6.325 µM)	relative viability ([1]; first compound 20 µM)	relative viability ([2]; first compound 0.6325 µM)	relative viability ([2]; first compound 2 µM)	relative viability ([2]; first compound 6.325 µM)	relative viability ([2]; first compound 20 µM)	relative viability ([3]; first compound 0.1 µM)	relative viability ([3]; first compound 0.3162 µM)	relative viability ([3]; first compound 1 µM)	relative viability ([3]; first compound 3.162 µM)	relative viability ([3]; first compound 10 µM)	relative viability ([4]; first compound 0.02 µM)	relative viability ([4]; first compound 0.06325 µM)	relative viability ([4]; first compound 0.2 µM)	relative viability ([4]; first compound 0.6325 µM)	relative viability ([4]; first compound 2 µM)
NCI-H1666	0.559	0.338	0.409	0.311	0.762	0.766	0.676	0.63	0.691	0.681	0.773	0.741	0.743	0.846	0.777	0.862	0.787	0.855
HARA	0.189	0.104	0.161	0.0982	0.211	0.294	0.182	0.192	0.822	0.735	0.754	0.894	0.923	0.509	0.525	0.825	0.423	0.689
NCI-H661	0.413	0.349	0.262	0.33	0.886	0.653	0.41	0.232	0.763	0.976	0.718	0.786	0.665	0.544	0.498	0.577	0.57	0.515
NCI-H2087	0.311	0.288	0.233	0.264	0.489	0.197	0.172	0.195	0.481	0.63	0.669	0.616	0.559	0.213	0.147	0.187	0.214	0.254
LC-2-ad	0.146	0.315	0.231	0.116	0.325	0.271	0.259	0.151	0.697	0.774	0.771	0.712	0.677	0.895	0.888	0.885	0.916	0.898
NCI-H2405		0.477	0.326	0.132		1.12	0.315	0.256	0.835	0.885	0.905	0.855	0.842	0.601	0.619	0.496	0.603	0.667
HCC-44	0.657	0.438	0.221	0.404	0.617	0.721	0.549	0.488	0.984	0.981	1.06	1.06	0.954	1.01	1.04	1.04	1.02	1.04
NCI-H3122	0.514	0.349	0.202	0.174	0.205	0.202	0.139	0.14	0.623	0.64	0.663	0.649	0.579	0.262	0.247	0.21	0.238	0.3
LU99A	0.206	0.211	0.206	0.235	0.162	0.126	0.155	0.109	0.261	0.276	0.285	0.271	0.262	0.582	0.48	0.492	0.582	0.503
ABC-1		0.556	0.424	0.112					0.714	0.786	0.908	0.926	0.705					
H3255	0.302	0.272	0.222	0.23	0.529	0.603	0.393	0.37	0.579	0.594	0.572	0.574	0.529	0.598		0.562	0.656	0.532
HCC-827	0.878	0.59	0.548	0.388	0.264	0.236	0.248	0.206	0.614	0.733	0.659	0.72	0.669	0.578		0.534	0.547	0.605
NCI-H1734	0.298	0.446	0.16	0.184		0.385	0.222	0.141	0.559	0.661	0.656	0.589	0.591	0.655	0.594	0.712	0.636	0.687
EBC-1	0.29	0.301	0.315	0.131					0.817	0.883	0.759	0.729	0.642					
NCI-H838	0.472	0.403	0.279	0.214	0.232	0.25	0.24	0.25	0.842	0.798	0.806	0.798	0.738	0.488	0.506	0.534	0.525	0.51
NCI-H1437	0.366	0.322	0.184	0.115	0.319	0.315	0.312	0.265	0.638	0.681	0.632	0.643	0.575	0.483	0.583	0.46	0.607	0.449
